# Patent publication US20100144788A1 (priority 2007, published 2010)
# Experiments:
# [1] = Hydrate formation when precipitated from water; assay type: physicochemical
# From the text: Crystals used in the present invention may exist as solvates, i.e. crystals wherein solvent molecules form part of the crystal structure. The solvate may be formed from water, in which case the solvates are often referred to as hydrates. Alternatively, the solvates may be formed from other solvents, such as e.g. ethanol, acetone, or ethyl acetate. The exact amount of solvate often depends on the conditions. For instance, hydrates will typically loose water as the temperature is increased or as the relative humidity is decreased.
# [2] = tested on: Spontaneously hypertensive rats (SHR); experiment: Spontaneously hypertensive rats, animal model of ADHD: operant task with delayed food-reward and circadian activity recording; assay type: in vivo, rat
# Procedure: Core symptoms of ADHD are attention deficit, hyperactivity and increased impulsiveness. Spontaneously hypertensive rats (SHR) were used as animal model for attention deficit hyperactivity disorder (ADHD), Wistar Kyoto rats (the root strain of SHR) served as controls [Biol. Psychiatry. 57, 1239-47, 2005]. To assess these symptoms, an operant task involving a delayed food-reward was used to measure attention- and impulsiveness-related parameters. Attention deficits were measured as increase in the number of lever presses on the wrong side. Impulsiveness was measured as lever presses and reward chamber inspections during the OFF state in test sessions without delayed reward and during the delay interval in the test sessions with delayed rewarding. Hyperactivity was monitored by circadian recording in infra-red cages.
# Methods: Operant testing was performed in 20 hours sessions, each in operant behaviour cages with two levers and adjacent reward chambers on the right and left side of the lever panel. The animals had access to food only via lever presses, and fluid was freely available. Training and testing consisted of the following phases:
# • (1) Both levers were continuously active (indicated by a signal light). […] The signal light on the correct side indicated the state of the lever (ON or OFF).
# • (1) Like Acquisition (3) • (2) Like (1), except that after a lever press of an active lever, the reward was not presented immediately, but after a delay interval of 5 seconds.
# NET = molecular target: T1, NET (Rattus norvegicus, UniProt Q9WTR4); experiment: Norepinephrine (NE) reuptake inhibition, rat cortical synaptosomes, [3H]NE; assay type: biochemical; conditions: [3H]NE 10 nM
# T1 construct: rat cortical synaptosome preparation; from tissue; host or cells: rat cortical synaptosomes
# Procedure: Non-specific uptake was determined in the presence of 10 μM talsupram or citalopram and the total uptake was determined in the presence of buffer. Aliquots were incubated for 15 minutes at 37° C. […] Filters were washed and counted in a Wallac MicroBeta counter.
# [3] = molecular target: T2, human alpha1A-7 receptors (Homo sapiens, UniProt P35348); experiment: Antagonism of adrenaline evoked release of Ca2+ in CHO cells expressing human alpha1A-7 receptors (FLIPR); assay type: cell-based; conditions: functional assay
# T2 construct: expressed in transfected cells; host or cells: CHO cells
# T2 sequence (P35348 1-466): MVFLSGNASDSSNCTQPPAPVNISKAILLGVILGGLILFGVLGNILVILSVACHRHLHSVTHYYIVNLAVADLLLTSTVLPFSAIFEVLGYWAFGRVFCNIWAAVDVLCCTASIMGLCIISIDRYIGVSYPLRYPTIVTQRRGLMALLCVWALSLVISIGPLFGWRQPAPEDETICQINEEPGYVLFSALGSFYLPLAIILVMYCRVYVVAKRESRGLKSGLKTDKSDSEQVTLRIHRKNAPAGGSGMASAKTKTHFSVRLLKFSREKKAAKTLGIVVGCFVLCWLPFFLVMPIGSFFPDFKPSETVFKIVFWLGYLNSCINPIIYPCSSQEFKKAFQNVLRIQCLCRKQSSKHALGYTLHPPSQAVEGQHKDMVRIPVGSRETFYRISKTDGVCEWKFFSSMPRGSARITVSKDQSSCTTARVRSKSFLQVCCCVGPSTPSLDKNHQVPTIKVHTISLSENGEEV
# Procedure: These experiments were carried out essentially as described below. All cells were cultured in DMEM medium supplemented with 10% BCS, 4 mM L-glutamine (or 2 mM in the case of COS-7), and 100 units/ml penicillin plus 100 μg/ml streptomycin, at 37° C., in 5% CO2. Twenty-four hours prior to assays, CHO cells expressing the human alpha1A-7 receptors were seeded into 384-well black wall microtiter plates coated with poly-D-lysine. […] After excess dye was discarded, cells were washed in assay buffer and layered with a final volume equal to 45 μl/well (or 30 ul/well for antagonist assay). […] Basal fluorescence was monitored in a fluorometric imaging plate reader or FLIPR™ from Molecular Devices (Sunnyvale, Calif.) with an excitation wavelength of 488 nm and an emission range of 500 to 560 nm. Laser excitation energy was adjusted so that basal fluorescence readings were approximately 8,000 relative fluorescent units (RFU). Cells were then stimulated at room temperature with agonists diluted in assay buffer (15 μl), and RFU were measured at 1.5 second intervals over a period of 2.5 min. Maximum change in fluorescence was calculated for each well. Concentration-response curves derived from the maximum change in fluorescence were analyzed by nonlinear regression (Hill equation).
# [4] = tested on: extracellular levels of acetylcholine; experiment: Microdialysis, extracellular acetylcholine in prefrontal cortex of freely-moving Wistar rats (Example 2F); assay type: in vivo, rat; conditions: s.c.
# Procedure: Male Wistar rats (280-350 g; Harlan, Zeist, The Netherlands) were used for the experiments. Rats were individually housed in plastic cages (30×30×40 cm) and had ad libitum access to food and water.
# Rats were anesthetized using isoflurane (2%, 400 mL/min N2O, 400 ml/min O2). Lidocain (10% m/v) was used for local anesthesia. Each animal was placed into a stereotaxic frame (Kopf instruments, USA), and home-made I-shaped probes (Hospal AN 69 membrane, 4 mm exposed surface) were inserted into the medial prefrontal cortex (mPFC) using the rat brain atlas of Paxinos and Watson (1982). Coordinates for the tip of the probe was mPFC [AP=3.4 mm, L=−0.8 mm, V=5.0 mm]. The probe was then fixed to the skull with dental cement and a srew. Flunixin (1 mg/kg s.c.) was administered as post-operative analgesic.
# Experiments were carried out 24-48 hours after surgery. […] Samples were collected by an automated fraction collector (CMA 142), and stored at −80° C. until analyzed. […]
# Concentrations of acetylcholine were determined by HPLC with tandem mass spectrometry (MS/MS) detection. […]
# The LC/MS analyses were performed using a API 4000 MS/MS system consisting of a API 4000 MS/MS detector and a Turbo Ion Spray interface (both from Applied Biosystems, the Netherlands). […] Data were calibrated and quantitated using the Analyst™ data system (Applied Biosystem, version 1.2). […]
# [5] = tested on: extracellular levels of acetylcholine; experiment: Microdialysis, extracellular acetylcholine in prefrontal cortex and ventral hippocampus of Sprague-Dawley rats (Example 2G); assay type: in vivo, rat
# Procedure: Male Sprague-Dawley rats, initially weighing 275-300 g, were used. The animals were housed under a 12-hr light/dark cycle under controlled conditions for regular in-door temperature (21±2° C.) and humidity (55±5%) with food and tap water available ad libitum.
# Rats were anaesthetised with hypnorm/dormicum (2 ml/kg) and intracerebral guide cannulas (CMA/12) were stereotaxically implanted into the hippocampus, aiming to position the dialysis probe tip in the ventral hippocampus (co-ordinates: 5,6 mm posterior to bregma, lateral −5,0 mm, 7,0 mm ventral to dura or in the frontal cortex (co-ordinates: 3,2 mm anterior to bregma; lateral, 0,8 mm; 4,0 mm ventral to dura). Anchor screws and acrylic cement were used for fixation of the guide cannulas. The body temperature of the animals was monitored by rectal probe and maintained at 37° C. The rats were allowed to recover from surgery for 2 days, housed singly in cages. […]
# Concentration of acetylcholine (ACh) in the dialysates was analysed by means of HPLC with electrochemical detection using a mobile phase consisting of 100 mM disodium hydrogenphosphate, 2.0 mM octane sulfonic acid, 0.5 mM tetramethyl-ammonium chloride and 0.005% MB (ESA), pH 8.0. […] The latter was detected electrochemical by using a platinum electrode (Analytical cell: ESA, model 5040). […]
# [6] = Solubility of salts in water with pH of the saturated solution and identity of the precipitate
# [7] = SHR, methylphenidate 2 and 5 mg/kg i.p. intermittent, ~10 mg/kg/day chronic via drinking water
# [8] = SHR rats, 5 and 10 mg/kg i.p., injected 30 min before testing
# T1 sequence (Q9WTR4 1-597): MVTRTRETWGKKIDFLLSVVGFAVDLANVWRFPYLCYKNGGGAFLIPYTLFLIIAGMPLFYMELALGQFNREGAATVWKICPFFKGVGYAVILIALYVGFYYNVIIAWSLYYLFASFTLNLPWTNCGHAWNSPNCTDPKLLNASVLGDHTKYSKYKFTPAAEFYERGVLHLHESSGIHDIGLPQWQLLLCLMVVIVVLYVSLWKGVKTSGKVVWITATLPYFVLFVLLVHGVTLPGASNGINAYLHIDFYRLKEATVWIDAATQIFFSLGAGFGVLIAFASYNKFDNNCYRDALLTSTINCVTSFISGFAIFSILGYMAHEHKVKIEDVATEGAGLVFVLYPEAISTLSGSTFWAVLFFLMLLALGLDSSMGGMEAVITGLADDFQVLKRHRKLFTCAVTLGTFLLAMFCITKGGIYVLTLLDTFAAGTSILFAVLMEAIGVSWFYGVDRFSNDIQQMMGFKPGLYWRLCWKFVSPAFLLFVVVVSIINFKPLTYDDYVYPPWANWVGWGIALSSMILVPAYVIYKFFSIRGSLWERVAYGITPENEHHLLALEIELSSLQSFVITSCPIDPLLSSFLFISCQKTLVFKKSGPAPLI
smiles,measurement,setting,value
"O=C(O)CCC(=O)O [Succinic acid, 1,4-butanedioic acid, 2:1]",formation of hydrates,[1],do
"Br.Cc1ccc(Sc2ccccc2C2CCNCC2)cc1 [HBr, 4-(2-p-Tolylsulfanyl-phenyl)-piperidine hydrobromide]",formation of hydrates,[1],does not form hydrates
Cc1ccc(Sc2ccccc2C2CCNCC2)cc1,formation of hydrates,[1],do
"COC(=O)C(c1ccccc1)C1CCCCN1 (centres unmarked) [Methylphenidate, reference compound]",attention deficit,[2]; [7],no reduction
same,impulsiveness,[2]; [7],no reduction
same,time course of activity,"[2]; chronic administration via drinking water, ~10 mg/kg/day",did not alter
same,hyperactivity of SHR,"[2]; intermittent administration, 2 and 5 mg/kg i.p., effect lasted a few hours",markedly and dose-dependently aggravated
"Cc1ccc(Sc2ccccc2C2CCNCC2)cc1 [compound I, 4-[2-(4-methylphenylsulfanyl)-phenyl]piperidine]",IC50,NET,0.023 µM
same,adrenaline evoked release of Ca2+ from intracellular stores,[3],antagonises
same,extracellular level of acetylcholine,[4],increase
same,extracellular level of acetylcholine,[5],increase
same,acquisition of the task or general motivation of food seeking,"[2]; SHR rats, 5 and 10 mg/kg i.p.",did not affect
same,attention deficits,[2]; [8],reduced
same,impulsiveness,[2]; [8],reduced
same,hyperactivity - locomotor activity,"[2]; SHR rats, 5 and 10 mg/kg i.p., circadian activity monitoring, for 1 hour without prolonged effects",dose-dependently depressed
"O=C(O)CCCC(=O)O [Glutaric acid, 1,5-pentanedioic acid 1:1]",Resulting pH,[6]; pH in the saturated solution of the salt in water,4.6
same,Precipitate,"[6]; whether precipitate isolated after the solubility determination is identical to the compound dissolved, indicative of hydrate formation",=start
